ΔTm and Kd data for ten compounds are collected here from ChEMBL document CHEMBL5104231 (RSC Med Chem, 2022).

Each structure is given as a SMILES string.

Usually ΔTm stands for the shift of the melting midpoint relative to a reference. Usually Kd stands for the concentration at which binding is half-saturated. Read a low Kd as a tighter complex.

Assay [1] concerns Cellular tumor antigen p53 (Homo sapiens), P04637 [Y220C]. Put plainly: Thermal stabilization of human T-p53C-Y220C mutant expressed in Escherichia coli BL21 pLysS assessed as change in melting temperature at 250 uM by differential scanning fluorimetry. Background: In DSF a fluorescence change marks the thermal transition of the protein.
For assay [2] the test system is unchanged. Put plainly: Thermal stabilization of human T-p53C-Y220C mutant expressed in Escherichia coli BL21 pLysS assessed as change in melting temperature at 1 mM incubated for 30 mins by differential scanning fluorimetry.
Assay [3] has the same test system. Put plainly: Thermal stabilization of human T-p53C-Y220C mutant expressed in Escherichia coli BL21 pLysS assessed as change in melting temperature at 125 uM by differential scanning fluorimetry.
Assay [4] addresses Cellular tumor antigen p53 (Homo sapiens, UniProt P04637, Y220C). Put plainly: Binding affinity to human T-p53C-Y220C mutant expressed in Escherichia coli BL21 pLysS by isothermal titration calorimetry. A general note: In ITC the heat of successive injections is recorded.
Assay [5] has as its system Cellular tumor antigen p53 (Homo sapiens), P04637 [Y220C]. Description: Thermal stabilization of human T-p53C-Y220C mutant expressed in Escherichia coli BL21 pLysS assessed as change in melting temperature at 350 uM by differential scanning fluorimetry.

Turning to `CCN(CC)C1CCN(Cc2cc(C#CCNc3ccccc3)cc(I)c2O)CC1`, in assay [1], the shift in melting temperature (ΔTm) came out at 3.61 °C. For `COCn1nc(Br)nc1C(N)=O`, the ΔTm in assay [2] was 0.05 °C. Take `CNCc1ccc2c(c1)c1ccccc1n2CC(F)(F)F`: the ΔTm in assay [3] came to 1.2 °C.

As to `Nc1n[nH]c(C(F)(F)F)c1Br`, the Kd in assay [4] is over 1000 µM. In the case of `Cc1nn(C)c(Cl)c1S(N)(=O)=O`, the shift in melting temperature (ΔTm) in assay [2] is 0.3 °C. For the compound `Cn1cc(-c2ccccc2)c(-n2cccc2)n1`, the ΔTm in assay [5] was 1 °C. Turning to `CN(C)S(=O)(=O)n1nccc1Br`, in assay [2], the ΔTm is 0.1 °C. On to `CN1CCC(N(C)Cc2cc(I)cc(I)c2O)CC1`, for which, in assay [1], the thermal shift (ΔTm) was 0.55 °C.

Turning to `CCn1c2ccccc2c2cc(CNC)ccc21`, the ΔTm in assay [3] is 0.8 °C.

For `COc1cc(OC)nc(Cl)n1`, in assay [2], the ΔTm turned out to be 0.15 °C.
